# Assay results taken from patent publication US11813340B2, “PSMA targeted radiohalogenated urea-polyaminocarboxylates for cancer radiotherapy” (The Johns Hopkins University, priority 2018, dated 2023).
# “Also recorded” adds a separate entry of the source.
# Experiments:
# PSMA+ PC3-PIP = assay: Efficacy in subcutaneous (SC) PSMA+ PC3-PIP model; assay type: in vivo, NOD/SCID/IL-2rγ−/− (NSG) mice; conditions: single intravenous injection of different doses; FIG. 3A
# Description: (§1) Two murine models of human PC were generated, a subcutaneous (SC) model of PSMA+PC3-PIP and PSMA-PC3-flu cells and a metastatic model of PSMA+ PC3ML/PSMA/fLuc in NOD/SCID/IL-2rγ−/− (NSG) mice. Single intravenous injection of different doses (FIG. 3) was given to each animal and the tumor progression was monitored by measuring the SC tumor volume or by performing bioluminescence imaging for the metastatic model.
# [1] = tested on: PSMA + PC3-PIP and PSMA-PC3-flu flank xenografts; assay: Biodistribution of At-211 labeled PSMA inhibitors with and without cold blocking agent (Tables 6-8); assay type: in vivo, athymic mice
# Description: Organs were harvested 1, 4, and 24 h post-injection (n=5 per time point).
# CD-1 mice = assay: Long-term toxicity in healthy immunocompetent mice; assay type: in vivo; conditions: 1.48 MBq, 0.74 MBq, 0.244 MBq; up to 4 months after treatment
# [2] = tested on: PSMA + PC3-PIP and PSMA-PC3-flu flank xenografts; conditions: previously shown, Mease et al., 2018; cited from earlier work
# [3] = tested on: PSMA+PC3-PIP and PSMA-PC3-flu flank xenografts; assay: Biodistribution of [125I/211At]2 and 3 with and without co-injection of DCIBzL (Example 6); assay type: in vivo, athymic mice
# Description: Final compounds were purified by HPLC.
# PSMA− PC3-flu = assay: Efficacy in subcutaneous (SC) PSMA− PC3-flu model; assay type: in vivo, NOD/SCID/IL-2rγ−/− (NSG) mice; conditions: single intravenous injection of different doses; FIG. 3A
# Description: as §1
# [4] = 21-24 Hour (footnote b), + 0.25 nmole YC-I-27
# [5] = 21-24 Hour (footnote b), no blocker
structure (smiles),measurement,setting,value
O=C([O-])CN1CCN(CC(=O)[O-])CCN(CC(=O)NCCCCC(=O)N(CCCC[C@H](NC(=O)N[C@@H](CCC(=O)O)C(=O)O)C(=O)O)Cc2ccc([211At])cc2)CCN(CC(=O)[O-])CC1.[Lu+3] [[^211At]VK-02-90-Lu],response in PSMA+ PC3-PIP SC model (SC tumor volume),PSMA+ PC3-PIP,dose-dependent response; also recorded: dose-dependent efficacy
same,"Biodistribution, Blood","[1]; 1 Hour, 0.5 nmole YC-I-27",0.5 ± 0.1 % injected dose/g
same,"Biodistribution, Flu tumor","[1]; 1 Hour, 0.5 nmole YC-I-27",0.4 ± 0.1 % injected dose/g
same,"Biodistribution, PIP tumor","[1]; 1 Hour, 0.5 nmole YC-I-27",25.4 ± 4.4 % injected dose/g
same,"Biodistribution, Spleen","[1]; 1 Hour, 0.5 nmole YC-I-27",0.3 ± 0.4 % injected dose/g
same,"Biodistribution, Stomach","[1]; 1 Hour, 0.5 nmole YC-I-27",0.4 ± 0.2 % injected dose/g
same,"Biodistribution, kidney","[1]; 1 Hour, 0.5 nmole YC-I-27",2.2 ± 0.6 % injected dose/g
same,"Biodistribution, lacrimal gland","[1]; 1 Hour, 0.5 nmole YC-I-27",0 % injected dose/g
same,"Biodistribution, salivary gland","[1]; 1 Hour, 0.5 nmole YC-I-27",0.4 ± 0.15 % injected dose/g
same,"Biodistribution, Blood","[1]; 1 Hour, + 0.25 nmole YC-I-27",0.6 ± 0.04 % injected dose/g
same,"Biodistribution, Flu tumor","[1]; 1 Hour, + 0.25 nmole YC-I-27",0.4 ± 0.1 % injected dose/g
same,"Biodistribution, PIP tumor","[1]; 1 Hour, + 0.25 nmole YC-I-27",34.2 ± 7.8 % injected dose/g
same,"Biodistribution, Spleen","[1]; 1 Hour, + 0.25 nmole YC-I-27",0.5 ± 0.4 % injected dose/g
same,"Biodistribution, Stomach","[1]; 1 Hour, + 0.25 nmole YC-I-27",0.4 ± 0.2 % injected dose/g
same,"Biodistribution, kidney","[1]; 1 Hour, + 0.25 nmole YC-I-27",5.0 ± 1.6 % injected dose/g
same,"Biodistribution, lacrimal gland","[1]; 1 Hour, + 0.25 nmole YC-I-27",0.1 ± 0.4 % injected dose/g
same,"Biodistribution, salivary gland","[1]; 1 Hour, + 0.25 nmole YC-I-27",0.4 ± 0.15 % injected dose/g
same,"Biodistribution, Blood","[1]; 1 Hour, no blocker",0.8 ± 0.2 % injected dose/g
same,"Biodistribution, Flu tumor","[1]; 1 Hour, no blocker",0.4 ± 0.2 % injected dose/g
same,"Biodistribution, PIP tumor","[1]; 1 Hour, no blocker",30.6 ± 4.8 % injected dose/g
same,"Biodistribution, Spleen","[1]; 1 Hour, no blocker",2.5 ± 0.9 % injected dose/g
same,"Biodistribution, Stomach","[1]; 1 Hour, no blocker",0.4 ± 0.1 % injected dose/g
same,"Biodistribution, kidney","[1]; 1 Hour, no blocker",90 ± 43 % injected dose/g
same,"Biodistribution, lacrimal gland","[1]; 1 Hour, no blocker",0.8 ± 0.9 % injected dose/g
same,"Biodistribution, salivary gland","[1]; 1 Hour, no blocker",0.5 ± 0.2 % injected dose/g
same,"Biodistribution, Blood","[1]; 4 H, 0.5 nmole YC-I-27",0.2 ± 0.1 % injected dose/g
same,"Biodistribution, Flu tumor","[1]; 4 H, 0.5 nmole YC-I-27",0.1 ± 0.04 % injected dose/g
same,"Biodistribution, PIP tumor","[1]; 4 H, 0.5 nmole YC-I-27",18.7 ± 5.4 % injected dose/g
same,"Biodistribution, Spleen","[1]; 4 H, 0.5 nmole YC-I-27",0.8 ± 0.5 % injected dose/g
same,"Biodistribution, Stomach","[1]; 4 H, 0.5 nmole YC-I-27",0.4 ± 0.05 % injected dose/g
same,"Biodistribution, kidney","[1]; 4 H, 0.5 nmole YC-I-27",0.7 ± 0.1 % injected dose/g
same,"Biodistribution, lacrimal gland","[1]; 4 H, 0.5 nmole YC-I-27",0 % injected dose/g
same,"Biodistribution, salivary gland","[1]; 4 H, 0.5 nmole YC-I-27",0.3 ± 0.2 % injected dose/g
same,"Biodistribution, Blood","[1]; 4 H, + 0.25 nmole YC-I-27",0.2 ± 0.1 % injected dose/g
same,"Biodistribution, Flu tumor","[1]; 4 H, + 0.25 nmole YC-I-27",0.1 ± 0.2 % injected dose/g
same,"Biodistribution, PIP tumor","[1]; 4 H, + 0.25 nmole YC-I-27",27.8 ± 8.7 % injected dose/g
same,"Biodistribution, Spleen","[1]; 4 H, + 0.25 nmole YC-I-27",0.1 ± 0.5 % injected dose/g
same,"Biodistribution, Stomach","[1]; 4 H, + 0.25 nmole YC-I-27",0.5 ± 0.3 % injected dose/g
same,"Biodistribution, kidney","[1]; 4 H, + 0.25 nmole YC-I-27",1.4 ± 0.3 % injected dose/g
same,"Biodistribution, lacrimal gland","[1]; 4 H, + 0.25 nmole YC-I-27",0.4 ± 0.4 % injected dose/g
same,"Biodistribution, salivary gland","[1]; 4 H, + 0.25 nmole YC-I-27",0.2 ± 0.1 % injected dose/g
same,"Biodistribution, Blood","[1]; 4 H, no blocker",0.1 ± 0.03 % injected dose/g
same,"Biodistribution, Flu tumor","[1]; 4 H, no blocker",0.1 ± 0.1 % injected dose/g
same,"Biodistribution, Spleen","[1]; 4 H, no blocker",0 % injected dose/g
same,"Biodistribution, Stomach","[1]; 4 H, no blocker",0.3 ± 0.2 % injected dose/g
same,"Biodistribution, kidney","[1]; 4 H, no blocker",2.1 ± 0.6 % injected dose/g
same,"Biodistribution, lacrimal gland","[1]; 4 H, no blocker",0.3 ± 1.1 % injected dose/g
same,"Biodistribution, salivary gland","[1]; 4 H, no blocker",0.2 ± 0.1 % injected dose/g
same,"Biodistribution, Blood",[1]; [4],0.3 ± 1.0 % injected dose/g
same,"Biodistribution, Flu tumor",[1]; [4],0.04 ± 0.2 % injected dose/g
same,"Biodistribution, PIP tumor",[1]; [4],15.3 ± 8.0 % injected dose/g
same,"Biodistribution, Spleen",[1]; [4],0 % injected dose/g
same,"Biodistribution, Stomach",[1]; [4],0.3 ± 0.4 % injected dose/g
same,"Biodistribution, kidney",[1]; [4],0.3 ± 0.4 % injected dose/g
same,"Biodistribution, lacrimal gland",[1]; [4],0 % injected dose/g
same,"Biodistribution, salivary gland",[1]; [4],0 % injected dose/g
same,"Biodistribution, Blood",[1]; [5],0 % injected dose/g
same,"Biodistribution, Flu tumor",[1]; [5],0 % injected dose/g
same,"Biodistribution, PIP tumor",[1]; [5],9.5 ± 1.0 % injected dose/g
same,"Biodistribution, Spleen",[1]; [5],0 % injected dose/g
same,"Biodistribution, Stomach",[1]; [5],0 % injected dose/g
same,"Biodistribution, kidney",[1]; [5],0.02 ± 0.2 % injected dose/g
same,"Biodistribution, lacrimal gland",[1]; [5],0 % injected dose/g
same,"Biodistribution, salivary gland",[1]; [5],0 % injected dose/g
same,"Biodistribution, Blood","[1]; 21-24 Hour, 0.5 nmole YC-I-27",0.03 ± 0.3 % injected dose/g
same,"Biodistribution, Flu tumor","[1]; 21-24 Hour, 0.5 nmole YC-I-27",0.2 ± 0.3 % injected dose/g
same,"Biodistribution, PIP tumor","[1]; 21-24 Hour, 0.5 nmole YC-I-27",17.5 ± 7.9 % injected dose/g
same,"Biodistribution, Spleen","[1]; 21-24 Hour, 0.5 nmole YC-I-27",2.5 ± 4.3 % injected dose/g
same,"Biodistribution, Stomach","[1]; 21-24 Hour, 0.5 nmole YC-I-27",0.4 ± 0.7 % injected dose/g
same,"Biodistribution, kidney","[1]; 21-24 Hour, 0.5 nmole YC-I-27",0.4 ± 0.5 % injected dose/g
same,"Biodistribution, lacrimal gland","[1]; 21-24 Hour, 0.5 nmole YC-I-27",0 % injected dose/g
same,"Biodistribution, salivary gland","[1]; 21-24 Hour, 0.5 nmole YC-I-27",0 % injected dose/g
same,kidney and stomach uptake,[1]; compared to other At-211 labeled PSMA inhibitors,lower kidney and stomach uptake
same,treatment-related toxicity (overall health status and urinalysis),CD-1 mice,No CD-1 animals showed treatment-related toxicity
same,renal clearance,[2],rapid renal clearance
same,retention in PSMA+tumors,[2],persistent retention
same,Stomach uptake,[3]; @ 1 h,0.4±0.2 % ID/g
same,"retention, K","[3]; @1 h, co-injection of DCIBzL",2.2±0.6 % ID/g
same,"retention, LG","[3]; @1 h, co-injection of DCIBzL",below detection
same,"retention, SG","[3]; @1 h, co-injection of DCIBzL",0.4±0.15 % ID/g
same,Stomach uptake,[3]; @ 4 h,0.4±0.05 % ID/g
same,Stomach uptake,[3]; @ 24 h,0.4±0.7 % ID/g
same,^211At uptake in PSMA+ PC3-PIP xenografts,[3]; combined with DCIBzL,25.4±4.4 % ID/g
same,deastatination in vivo,"[3]; mouse, in vivo, listed as [^211At]3",negligible deastatination; also recorded: no evidence of deastatination in vivo
same,effect on PSMA− PC3-flu SC model,PSMA− PC3-flu,no effect
